Test results taken from publication PMC9382192, “Combined treatment with epigenetic agents enhances anti-tumor activity of MAGE-D4 peptide-specific T cells by upregulating the MAGE-D4 expression in glioma” (Frontiers in Oncology, 2022).

Tests used:
[1] = tested on: HLA-A2; experiment: HLA-A2 expression in U87; type: cell-based, human; conditions: TSA 1 μM 24 h
Procedure: The human glioma cell lines (U87-MG and U251) were obtained from the Cell Bank of Type Culture Collection of the Chinese Academy of Science (Shanghai, China). […] A3656), valproic acid (VPA, CAS No. 99-66-1), and trichostatin A (TSA, CAS No. 58880-19-6) were purchased from Sigma-Aldrich Corporation (St. Louis, MO, USA). DAC and TSA were dissolved in DMSO to a concentration of 10 mM. Aliquots were stored at -80°C and diluted with media before being used. Drug treatments were divided into seven groups: (1) DAC group: cells were cultured in medium on the presence of 1 μM DAC for 120 h; (2) VPA group: cells were grown in medium containing 1 mM VPA for 120 h; (3) TSA group: cells were cultured in medium supplemented with 1 μM TSA for 24 h; (4) D + V group: cells were cultured with 1 μM DAC and 1 mM VPA for 120 h; (5) D + T group: cells were cultured with 1 μM DAC for 120 h, followed by 1 μM TSA for 24 h; (6) Control group: cells were cultured with 0.09% DMSO, which is the highest concentration of DMSO used in this study in consideration of the potential toxicity of DMSO to living cells. […] The cells were then harvested, washed with PBS buffer three times, and analyzed by a FACScan flow cytometer (BD Biosciences, Franklin Lakes, NJ, USA) using BD AccuriTM C6 Software (BD Biosciences).

[2] = tested on: U87; experiment: LDH cytotoxicity assay, U87; type: cell-based, human; conditions: TSA-treated U87, E:T 50:1, 4 h; compared to T cell alone and NC-T cell groups
Procedure: The human glioma cell lines (U87-MG and U251) were obtained from the Cell Bank of Type Culture Collection of the Chinese Academy of Science (Shanghai, China). Decitabine (DAC, CAS No. A3656), valproic acid (VPA, CAS No. 99-66-1), and trichostatin A (TSA, CAS No. 58880-19-6) were purchased from Sigma-Aldrich Corporation (St. Louis, MO, USA). DAC and TSA were dissolved in DMSO to a concentration of 10 mM. Aliquots were stored at −80°C and diluted with media before being used. […]
The cytotoxic activity of MAGE-D4 peptide-specific CTLs to glioma cells was determined according to the instructions of the manufacturers by our published method ([31]). […] Four hours later, suspended cells were collected for CD107a flow cytometry, meanwhile, the supernatant was collected and analyzed with granzyme A and perforin ELISA kit (Cloud-Clone Corporation, Wuhan, China) at 450 nm, and the LDH kit (Promega, USA) at 490 nm. The percentage of specific lysis was calculated using the following formula: [(experimental release − spontaneous release)/(maximum release − spontaneous release)] × 100. […] Then, the cytotoxicity assay was measured and calculated as mentioned above.

| Compound | HLA-A2 levels [1] | cytotoxicity of peptide-specific T cells (specific lysis, LDH) [2] |
| --- | --- | --- |
| CC(/C=C/C(=O)NO)=C\[C@@H](C)C(=O)c1ccc(N(C)C)cc1 [TSA, trichostatin A] | elevated HLA-A2 levels with statistical significance | – |
| CLPPPNVIL [Peptide P8] | – | higher cytotoxicity |
